Reference: ChEMBL document CHEMBL1128795, “N-(Quinuclidin-3-yl)-2-(1-methyl-1H-indol-3-yl)-2-oxo-acetamide: a high affinity 5-HT3 receptor partial agonist” (Bioorg Med Chem Lett, 1995)

Legend:
[1] = species on record: Rattus norvegicus; test: Tested for maximum response in depolarization of isolated rat vagus nerve measured at dose 10 uM; format: functional
[2] = molecular target: T1, 5-hydroxytryptamine receptor 4 (Homo sapiens, UniProt Q13639); test: Binding affinity against 5-Hydroxytryptamine 4 receptor
T1 sequence (Q13639 whole entry): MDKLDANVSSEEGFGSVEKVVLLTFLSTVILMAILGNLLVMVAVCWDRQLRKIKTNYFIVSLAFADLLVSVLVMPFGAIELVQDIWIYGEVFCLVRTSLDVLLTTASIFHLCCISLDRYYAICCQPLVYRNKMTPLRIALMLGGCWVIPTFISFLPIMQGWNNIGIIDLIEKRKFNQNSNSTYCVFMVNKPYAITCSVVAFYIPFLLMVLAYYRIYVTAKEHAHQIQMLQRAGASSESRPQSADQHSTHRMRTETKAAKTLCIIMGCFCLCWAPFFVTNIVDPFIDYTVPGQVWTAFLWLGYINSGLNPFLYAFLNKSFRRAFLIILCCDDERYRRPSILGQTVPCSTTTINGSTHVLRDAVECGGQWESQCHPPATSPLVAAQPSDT

[3] = molecular target: T1, 5-hydroxytryptamine receptor 4; test: Binding affinity against 5-hydroxytryptamine 4 receptor

`Cn1cc(C(=O)C(=O)N[C@@H]2CN3CCC2CC3)c2ccccc21` was tested, and the Max response [1] was 167 uV and the Ki [2] was 398 nM.
`Cn1cc(C(=O)C(=O)N[C@H]2CN3CCC2CC3)c2ccccc21` showed a Ki [3] of 251 nM.
